Tests used:
[1] = Solubility of prodiamine in N-methyl pyrrolidone liquid carrier; assay type: physicochemical; settings: N-methyl pyrrolidone as liquid carrier; heating and gentle mixing
Text: For example, when N-methyl pyrrolidone is used as the liquid carrier for prodiamine, concentrations of 50 wt. % or more can be easily achieved by heating and gentle mixing. For convenience, however, concentrations on the order of 10 to 50 wt. %, and especially about 30 to 40 wt. %, are appropriate.
A mixture of 37.6 wt. % Prodiamine Technical Grade Herbicide (94.8% active) obtained from SipCam Aro USA of Roswell, Ga., and 62.4 wt. % M-Pyrol (N-methyl pyrrolidone) solvent obtained from ISP Technologies, Inc., of Wayne, N.J., was heated to about 75° C. (about 165° F.) with mechanical stirring until the prodiamine completely dissolved. The composition so obtained was then allowed to cool to ambient and then sprayed onto a moving bed of particulate fertilizer composed of a mixture of different fertilizer ingredients having particle sizes ranging from 4.75 to 1.18 mm, a combined bulk density of 0.92 gms/cc and containing about 24% nitrogen, 5% phosphorous and 11% potassium, measured as units of total nitrogen (N), available phosphate (P2O5) and soluble potash (K2O).

[2] = also printed as 187° F.; cited from earlier work

Structure (SMILES)	concentration achievable (dissolved) in N-methyl pyrrolidone [1] [wt. %]	flash point [2] [°C]
CCCN(CCC)c1c([N+](=O)[O-])cc(C(F)(F)F)c(N)c1[N+](=O)[O-] [prodiamine, 2,4-dinitro-N^3,N^3-di-n-propyl-6-(trfluoromethyl)-1,3-benzenediamine]	≥ 50	–
CN1CCCC1=O [N-methyl pyrrolidone]	–	~86

Reference: patent US20050113253A1, “Fertilizer” (priority 2003, published 2005)
